Reference: patent publication US10093656B2, “Fused-ring or tricyclic aryl pyrimidine compound used as kinase inhibitor” (NANJING SANHOME PHARMACEUTICAL CO., LTD, priority 2015, dated 2018)

Columns and labels:
A431 cells EGFR WT = assay: A431 cell viability assay (Cell Titer-Glo, 6 days); type: cell-based, human; conditions: for IC50: Homo sapiens, A-431, 144 h, A431 cells, 6 days; for A431:NCI-H1975 (ratio): ratio of cell IC50 A431 to NCI-H1975
Protocol: (§1) RPMI1640, fetal bovine serum, penicillin/streptomycin solution were purchased from Life Technology (Madison, Wis.). Cell Titer-Glo luminescent cell viability reagents were purchased from Promega (Madison, Wis.). A431 cell line and NCI-H1975 cell line were purchased from European Collection of Cell Cultures (ECACC). Plate Reader Instrument: Envision (PerkinElmer).
(§2) 384-Well plates, 300 of A431 cells and NCI-H1975 cells were inoculated per well, a volume of which was 45 μL. And the plates were incubated overnight in a CO2 incubator at 37° C. The test compound was diluted 3-fold to obtain 10 dose concentrations, the final concentrations of which were from 10 μM to 0.508 nM, two wells. The middle plates were filled with 49 μL of medium per well. 1 μL of compound in the gradient dilution compound plates was transferred to the middle plates and mixed well. And then 5 μL liquid in the middle plates was taken to the cell plates. The cells were incubated in a CO2 incubator for 6 days. After 6 days, 25 μL of detection reagents was added. And then the mixture was incubated at room temperature for 10 minutes and the plates were read by Envision.
(§3) The reading is converted to the suppression rate by the following formula (%) (Max-Sample)/(Max-Min)*100%. IC50 Data was measured by Four-parameter curve fitting (Model 205 in XLFIT5, IDBS).

[1] = tested on: NCI-H1975 lung cancer patient-derived xenograft (CDX); assay: Pharmacodynamics study in vivo, NCI-H1975 xenograft (CDX) model; parameters: species or system BALB/c nude mice; conditions: AZD9291 5 mg/kg; for Tumor Volume (mm^3) 4 days: day 4, oral daily: compound 30 10 mg/kg, 33, 34, 40, 42, 43 20 mg/kg; for Tumor Volume (mm^3) 7 days: day 7, oral daily: compound 30 10 mg/kg, 33, 34, 40, 42, 43 20 mg/kg; for Tumor Volume (mm^3) 11 days: day 11, oral daily: compound 30 10 mg/kg, 33, 34, 40, 42, 43 20 mg/kg; for Tumor Volume (mm^3) 14 days: day 14, oral daily: compound 30 10 mg/kg, 33, 34, 40, 42, 43 20 mg/kg; for Tumor Volume (mm^3) 18 days: day 18, oral daily: compound 30 10 mg/kg, 33, 34, 40, 42, 43 20 mg/kg
Protocol: For example, after 21 days of administration, the tumor volume of the representative compounds 30, 33, 34, 40, 42 and 43 decreased from the beginning of about 149 mm^3 to 3-39 mm^3.
The pharmacological experiments in vivo were performed on BALB/c nude mice that subcutaneously implanted NCI-H1975 lung cancer […] xenograft (CDX).
BALB/c nude mice, female, 6-8 weeks, weighted about 18-22 grams, the mice were kept in a special pathogen-free environment, and in a single ventilation cage (5 mice per cage). The bedding and water of all the cages were disinfected before use. All animals were free to obtain standard certified commercial laboratory diets. A total of 100 mice were purchased from Beijing Vital for research. The tumor tissue (20-30 mm^3) was implanted subcutaneously in the […] of each mouse for tumor growth. The experiment was started when the average tumor volume reached about 150-200 mm^3. The test compound was orally administered daily (compound 30 was administered at 10 mg/kg, compound 33, 34, 40, 42 and 43 were administered at 20 mg/kg and compound AZD9291 was administered continuously for 21 days at 5 mg/kg, the data were shown in Table 3). The tumor volume was measured twice a week with a two-dimensional caliper and the volume was measured in cubic millimeters and calculated by the following formula: V=V=0.5 a×b2, where a and b were the major and minor diameters of the tumor, respectively.

[2] = tested on: NCI-H1975 cells EGFR L858R/T790M; assay: NCI-H1975 cell viability assay (Cell Titer-Glo, 6 days); type: cell-based; conditions: Homo sapiens, 144 h
Protocol: as §1, §2, §3

[3] = tested on: human skin squamous cell A431 xenograft (CDX); assay: Selectivity study in vivo, A431 xenograft (CDX) model; parameters: species or system BALB/c nude mice; conditions: Table 5 experiment, AZD9291 5 mg/kg; for Tumor Volume (mm^3) 4 days: day 4, oral once daily: 33, 34, 40, 42, 43 20 mg/kg; for Tumor Volume (mm^3) 11 days: day 11, oral once daily: 33, 34, 40, 42, 43 20 mg/kg; for Tumor Volume (mm^3) 18 days: day 18, oral once daily: 33, 34, 40, 42, 43 20 mg/kg
Protocol: In this model, the less inhibitory effect on the tumor, the better the selectivity in vivo.
The selective experiments in vivo were performed on BALB/c nude mice that subcutaneously implanted human skin squamous cell A431 xenograft (CDX).
BALB/c nude mice, female, 6-8 weeks, weighted about 18-20 grams, the mice were kept in a special pathogen-free environment and in a single ventilation cage (5 mice per cage). The bedding and water of all the cages were disinfected before use. All animals were free to obtain standard certified commercial laboratory diets. All mice were purchased from mice of Shanghai BK Laboratory Animal Co., LTD for research. The tumor tissue (20-30 mm^3) was implanted subcutaneously in the […] of each mouse for tumor growth. The experiment was started when the average tumor volume reached about 150-200 mm^3. The test compound was orally administered (compounds 17, 30, 37 and 38 were administered once daily at 20 mg/kg, the compound AZD9291 was administered once daily at 5 mg/kg, the compound CO-1686 was administered twice daily at 50 mg/kg, the compound Erlotinib was administered once daily at 75 mg/kg and the compound Afatinib was administered once daily at 7.5 mg/kg, 21 days of continuous administration. The data were shown in Table 4; compounds 33, 34, 40, 42 and 43 were administered once daily at 20 mg/kg and compound AZD9291 was administered once daily at5 mg/kg, 21 days of continuous administration. The tumor volume was measured twice a week with a two-dimensional caliper and the volume was measured in cubic millimeters and calculated by the following formula: V=V=0.5 a×b2, where a and b were the major and minor diameters of the tumor, respectively.

EGFR T790M/L858R = target: T1, EGFR T790M/L858R (Homo sapiens, UniProt P00533, L858R/T790M); assay: EGFR T790M/L858R enzyme HTRF inhibition assay; type: biochemical; conditions: 20 μM ATP, read-out: EGFR L858R/T79M IC50
T1 construct: purchased Life technology (Madison, Wis.)
Protocol: (§4) Enzyme: EGFR wild type, EGFR T790M/L858R, EGFR T790M and INSR were purchased from Life technology (Madison, Wis.), EGFR d746-750/T790M was purchased from Carna Biosciences (Japan).
(§5) HTRF Kit was purchased from Cis-Bio International which contained the Eu-labeled TK1 antibody, XL665 and biotin-labeled TK1 polypeptide substrates.
(§6) Detecting instrument: Envision (PerkinElmer).
(§7) The test compound was diluted 3-fold to obtain 10 doses of which the final concentration was from 300 nM to 0.015 nM.
EGFR T790M/L858R Enzyme Reaction Mixture System:
0.04 nM EGFR T790M/L858R, 1 μM biotin-TK1 peptide, 20 μM ATP enzyme buffer, a total of which was 10 μL. The reaction plate was white Proxiplate 384-Plus plate (PerkinElmer) and the mixture was reacted at 23° C. for 60 minutes.
(§8) Reaction Detection: 10 μL of detection reagent containing Antibody 2 nM and XL665 62.5 nM was added, and the reagent was incubated at 23° C. for 60 minutes. The plates were read by Envision.
(§9) The reading is converted to the suppression rate (%) by the following formula […]/(Max-Min)*100%. IC50 Data was measured by four-parameter curve fitting (Model 205 in XLFITS, IDBS).

EGFR wild type = target: T2, EGFR wild type (Homo sapiens, UniProt P00533); assay: Wild-type EGFR enzyme HTRF inhibition assay; type: biochemical; conditions: 25 μM ATP, read-out: EGFR WT IC50
T2 construct: purchased Life technology (Madison, Wis.)
Protocol: as §4, §5, §6, §7
Wild-Type EGFR Enzyme Reaction Mixture System:
0.05 nM Wild-type EGFR, 1 μM biotin-TK1 peptide, 25 μM ATP enzyme buffer, a total of which was 10 μL. The reaction plate was white Proxiplate 384-Plus plate (PerkinElmer) and the mixture was reacted at 23° C. for 60 minutes.
as §8, §9

EGFR d746-750/T790M = target: T3, EGFR d746-750/T790M (Homo sapiens, UniProt P00533, DEL746-750/T790M); assay: EGFR d746-750/T790M enzyme HTRF inhibition assay; type: biochemical; conditions: 40 μM ATP
T3 construct: purchased Carna Biosciences (Japan)
Protocol: as §4, §5, §6, §7
EGFR d746-750/T790M Enzyme Reaction Mixture System:
0.025 nM EGFR d746-750/T790M, 1 μM biotin-TK1 peptide, 40 μM ATP enzyme buffer, a total of which was 10 μL. The reaction plate was white Proxiplate 384-Plus plate (PerkinElmer) and the mixture was reacted at 23° C. for 60 minutes.
as §8, §9

T2 sequence (P00533 25-1210): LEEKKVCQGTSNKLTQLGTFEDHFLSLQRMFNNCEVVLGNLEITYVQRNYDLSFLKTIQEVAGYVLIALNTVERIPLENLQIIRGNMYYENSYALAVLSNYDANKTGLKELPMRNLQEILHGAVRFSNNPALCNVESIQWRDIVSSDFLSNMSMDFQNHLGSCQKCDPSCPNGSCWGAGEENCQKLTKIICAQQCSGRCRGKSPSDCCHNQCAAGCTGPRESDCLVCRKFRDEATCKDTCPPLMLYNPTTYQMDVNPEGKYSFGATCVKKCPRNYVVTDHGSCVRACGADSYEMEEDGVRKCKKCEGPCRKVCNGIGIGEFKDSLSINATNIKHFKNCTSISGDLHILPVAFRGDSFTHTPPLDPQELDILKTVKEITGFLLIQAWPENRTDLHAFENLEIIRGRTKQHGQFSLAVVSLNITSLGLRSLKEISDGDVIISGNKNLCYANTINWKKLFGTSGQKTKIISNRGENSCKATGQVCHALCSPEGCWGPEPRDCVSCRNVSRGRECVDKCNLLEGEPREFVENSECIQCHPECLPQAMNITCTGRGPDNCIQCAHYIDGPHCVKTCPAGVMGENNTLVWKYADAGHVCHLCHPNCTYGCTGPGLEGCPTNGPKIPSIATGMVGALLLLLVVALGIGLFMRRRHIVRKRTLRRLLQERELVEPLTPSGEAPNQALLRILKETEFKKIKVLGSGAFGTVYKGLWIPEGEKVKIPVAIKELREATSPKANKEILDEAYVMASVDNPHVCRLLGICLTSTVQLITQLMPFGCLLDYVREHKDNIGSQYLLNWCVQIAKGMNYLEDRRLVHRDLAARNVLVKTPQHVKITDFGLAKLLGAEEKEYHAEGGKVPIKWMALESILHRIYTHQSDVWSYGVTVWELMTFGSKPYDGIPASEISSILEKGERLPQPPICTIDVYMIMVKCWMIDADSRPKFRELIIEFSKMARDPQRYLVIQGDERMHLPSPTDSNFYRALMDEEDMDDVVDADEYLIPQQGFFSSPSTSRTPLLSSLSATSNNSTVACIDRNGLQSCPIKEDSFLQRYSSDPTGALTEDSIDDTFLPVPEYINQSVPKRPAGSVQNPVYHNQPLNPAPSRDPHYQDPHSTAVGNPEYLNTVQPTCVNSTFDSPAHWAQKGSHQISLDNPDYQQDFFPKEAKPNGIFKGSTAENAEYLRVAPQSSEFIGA
T3 sequence (P00533 with tags, fused parts or gaps DEL746-750/T790M limits assumed): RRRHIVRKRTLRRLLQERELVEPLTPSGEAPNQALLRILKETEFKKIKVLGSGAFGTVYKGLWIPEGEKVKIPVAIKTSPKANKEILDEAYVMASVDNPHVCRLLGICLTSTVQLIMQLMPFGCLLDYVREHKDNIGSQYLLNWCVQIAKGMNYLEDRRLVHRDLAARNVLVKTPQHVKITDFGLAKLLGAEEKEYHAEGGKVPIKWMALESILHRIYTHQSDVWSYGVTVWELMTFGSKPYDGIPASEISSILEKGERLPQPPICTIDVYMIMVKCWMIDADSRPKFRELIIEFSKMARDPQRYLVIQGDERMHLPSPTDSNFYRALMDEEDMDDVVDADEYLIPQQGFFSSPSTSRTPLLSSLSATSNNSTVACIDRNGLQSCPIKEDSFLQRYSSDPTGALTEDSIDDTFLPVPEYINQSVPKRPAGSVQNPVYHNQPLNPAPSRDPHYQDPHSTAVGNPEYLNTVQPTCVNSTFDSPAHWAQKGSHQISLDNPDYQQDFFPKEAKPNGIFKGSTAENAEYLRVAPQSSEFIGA
T1 sequence (P00533 25-1210 T790M/L858R): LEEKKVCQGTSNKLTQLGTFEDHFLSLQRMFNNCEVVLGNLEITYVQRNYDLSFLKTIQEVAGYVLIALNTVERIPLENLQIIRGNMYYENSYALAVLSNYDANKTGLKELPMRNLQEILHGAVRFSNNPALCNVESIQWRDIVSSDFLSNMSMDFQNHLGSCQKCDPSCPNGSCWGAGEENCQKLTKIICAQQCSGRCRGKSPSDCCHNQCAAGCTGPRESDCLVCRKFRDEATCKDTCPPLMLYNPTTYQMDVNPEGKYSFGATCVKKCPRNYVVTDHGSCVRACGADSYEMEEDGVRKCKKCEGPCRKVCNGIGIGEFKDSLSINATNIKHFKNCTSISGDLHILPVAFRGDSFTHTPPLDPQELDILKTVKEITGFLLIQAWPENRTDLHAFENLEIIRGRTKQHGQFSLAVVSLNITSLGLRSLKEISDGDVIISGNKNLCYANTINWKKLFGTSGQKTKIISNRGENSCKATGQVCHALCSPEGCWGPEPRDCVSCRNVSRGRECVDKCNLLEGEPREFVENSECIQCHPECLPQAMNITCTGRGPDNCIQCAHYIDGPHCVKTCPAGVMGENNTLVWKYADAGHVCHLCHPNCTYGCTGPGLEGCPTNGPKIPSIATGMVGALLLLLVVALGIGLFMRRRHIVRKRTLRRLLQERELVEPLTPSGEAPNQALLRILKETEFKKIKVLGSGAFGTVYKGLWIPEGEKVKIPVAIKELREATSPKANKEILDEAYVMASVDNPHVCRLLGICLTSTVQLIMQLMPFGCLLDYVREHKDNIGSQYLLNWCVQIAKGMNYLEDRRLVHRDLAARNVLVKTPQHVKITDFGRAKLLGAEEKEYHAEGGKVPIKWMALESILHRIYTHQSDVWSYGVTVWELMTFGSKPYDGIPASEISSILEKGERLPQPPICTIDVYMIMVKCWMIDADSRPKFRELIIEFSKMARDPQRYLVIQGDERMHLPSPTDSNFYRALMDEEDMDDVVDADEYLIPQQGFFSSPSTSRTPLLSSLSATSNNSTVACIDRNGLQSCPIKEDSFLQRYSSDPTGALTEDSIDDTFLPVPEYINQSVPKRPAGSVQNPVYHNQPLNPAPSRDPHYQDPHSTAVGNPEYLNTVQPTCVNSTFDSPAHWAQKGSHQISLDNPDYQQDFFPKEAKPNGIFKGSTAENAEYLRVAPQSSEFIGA

Row | Structure (SMILES) | IC50 (A431 cells EGFR WT) [nM] | A431:NCI-H1975 (ratio) (A431 cells EGFR WT) | Tumor Volume (mm^3) 4 days [1] [mm^3] | Tumor Volume (mm^3) 7 days [1] [mm^3] | Tumor Volume (mm^3) 11 days [1] [mm^3] | Tumor Volume (mm^3) 14 days [1] [mm^3] | Tumor Volume (mm^3) 18 days [1] [mm^3] | IC50 [2] [nM] | Tumor Volume (mm^3) 4 days [3] [mm^3] | Tumor Volume (mm^3) 11 days [3] [mm^3] | Tumor Volume (mm^3) 18 days [3] [mm^3] | IC50 (EGFR T790M/L858R) [nM] | IC50 (EGFR wild type) [nM] | IC50 (EGFR d746-750/T790M) [nM]
1 | C=CC(=O)Nc1cc(Nc2nccc(-c3cn4c5c(cccc35)OC3(CC3)C4)n2)c(OC)cc1N(C)CC(C)(C)N(C)C [Embodiment 43, N-(5-((4-(3H-Spiro[[1,4]oxazino[2,3,4-hi]indole-2,1′-cyclopropan]-6-yl)pyrimidin-2-yl)amino)-2-((2-(dimethylamino)-2-methylpropyl)(methyl)amino)-4-methoxyphenyl)acrylamide] | 548 | 2.1 | 92 | 65 | 61 | 45 | 23 | 264 | 238 | 516 | 820 |  |  | 
2 | C=CC(=O)Nc1cc(Nc2ncc(F)c(-c3c4n(c5cc(Cl)ccc35)CCOC4)n2)c(OC)cc1N(C)CCN(C)C [Embodiment 34, N-(5-((4-(7-Chloro-3,4-dihydro-1H-[1,4]oxazino[4,3-a]indol-10-yl)-5-fluoropyrimidin-2-yl)amino)-2-((2-(dimethylamino)ethyl)(methyl)amino)-4-methoxyphenyl)acrylamide] | 2100 | 31 | 102 | 80 | 70 | 59 | 35 | 68 | 237 | 646 | 1357 | 0.8 | 2 | 0.6
3 | C=CC(=O)Nc1cc(Nc2nccc(-c3cn4c5c(cccc35)OCCC4)n2)c(OC)cc1N(C)CCN(C)C [Embodiment 40, N-(5-((4-(3,4-Dihydro-2H-[1,4]oxazepino[2,3,4-hi]indol-7-yl)pyrimidin-2-yl)amino)-2-((2-(dimethylamino)ethyl)(methyl)amino)-4-methoxyphenyl)acrylamide] | 279 | 12 | 108 | 85 | 91 | 91 | 84 | 23 | 212 | 445 | 895 | 0.3 | 0.8 | 0.4
4 | C=CC(=O)Nc1cc(Nc2nccc(-c3cn4c5c(cccc35)OC3(CC3)C4)n2)c(OC)cc1N(C)CCN(C)C [Embodiment 42, N-(5-((4-(3H-Spiro[[1,4]oxazino[2,3,4-hi]indole-2,1′-cyclopropan]-6-yl)pyrimidin-2-yl)amino)-2-((2-(dimethylamino)ethyl)(methyl)amino)-4-methoxyphenyl)acrylamide] | 846 | 4.8 | 85 | 69 | 57 | 47 | 20 | 177 | 226 | 424 | 661 | 0.2 | 0.8 | 0.2
